Experimental data from patent US10342804B2, “Steroid compound for use in the treatment of hepatic encephalopathy” (Umecrine Cognition AB, priority 2014, dated 2019).

Tests used:
[1] = Concentrations in plasma and brain tissue after exogenous administration, LC-MS (Example 5); format: in vivo, rat; conditions: for Unbound brain concentration: 1-2 h after last treatment, seven weeks daily 20 mg/kg s.c.
Text: The study was divided into two series with animals (male Wistar rats), each series included the following groups; Controls treated with vehicle (CV, n=8 per series), Controls treated with 3α-ethynyl-3β-hydroxyandrostan-17-one oxime (C+GAM, n=8 per series), hyperammonemic rats treated with vehicle (HAV, n=8 per series), hyperammonemic rats treated with 3α-ethynyl-3β-hydroxyandrostan-17-one oxime (HA+GAM, n=8 per series). The once daily treatment with 3α-ethynyl-3β-hydroxyandrostan-17-one oxime at 20 mg/kg or with vehicle was performed with subcutaneous injections of 1 ml/kg around 9 a.m. Treatment started one week after starting with the ammonium containing diet and continued for the whole experimental period.
Blood was obtained from the tail of the rats (from Example 2) in the end of second week of ammonia treatment and first week of 3α-ethynyl-3β-hydroxyandrostan-17-one oxime treatment and also from the neck during the animal sacrifice. To obtain the plasma it was added EDTA […] and centrifuged at 1500 r.p.m during 5 minutes.
Rats were sacrificed by decapitation. One half of the brain including the cerebellum was collected and conserved at −80° C. for determination of 3α-ethynyl-3β-hydroxyandrostan-17-one oxime. Different brain areas (cerebellum, cortex, hippocampus and striatum) were dissected and conserved at −80° C. for possible determination of GAMS.
Collected brain and plasma samples were analyzed for 3α-ethynyl-3β-hydroxyandrostan-17-one oxime concentrations. Plasma and brain samples were thawed at room temperature. Plasma was protein-precipitated with a 3-fold volume with acetonitrile and brain tissue was homogenized with a 1:4 ratio of tissue:PBS (pH 7.4) and then extracted with a 2-fold volume of methanol:acetonitrile (1:1) for 20 min during sonication. Thereafter samples were shaken and centrifuged for 10 min at 10 000×g (Heraeus Pico 17 centrifuge).
The supernatant was then diluted with an equal volume of PBS and analyzed. Some samples were reanalyzed as 10-fold dilutions due to too high concentration of 3α-ethynyl-3β-hydroxyandrostan-17-one oxime. […]

[2] = test system: receptors, ion channels and enzymes, including all major classes of neurotransmitter receptors; experiment: Binding selectivity screen, 113 targets (Perkin Elmer customized screen); conditions: 10 μM, duplicate; neurotransmitter related receptors, steroid receptors, peptide receptors
Procedure: The binding of 3α-ethynyl-3β-hydroxyandrostan-17-one oxime was determined for receptors, ion channels and enzymes, including all major classes of neurotransmitter receptors. In total 113 targets were tested in duplicate with 3α-ethynyl-3β-hydroxyandrostan-17-one oxime at 10 μM (Perkin Elmer, Customized screen). Binding activity was defined as greater than or equal to 50% inhibition of ligand binding.

hyperammonemic rats = experiment: Beam walking test, hyperammonemic rats (Example 8); format: in vivo, rat
Procedure: Male Wistar rats (140-160 g) were made hyperammonemic by feeding them a diet containing ammonium acetate (30% by weight) (Felipo et al, European Journal of Biochemistry, 1988, 176, 567-571).
3α-ethynyl-3β-hydroxyandrostan-17-one oxime in sesame oil was administered by subcutaneous injections in the back of the rats, once daily. Two different sets of experiments were performed in hyperammonemic rats. In the first set four groups of rats were used: 1) control rats injected with vehicle; 2) hyperammonemic rats injected with vehicle; 3) control rats injected with 20 mg/Kg of 3α-ethynyl-3β-hydroxyandrostan-17-one oxime and 4) hyperammonemic rats injected with 20 mg/Kg of 3α-ethynyl-3β-hydroxyandrostan-17-one oxime. […]
Motor coordination was tested as described by Gonzalez-Usano et al (ACS Chemical Neuroscience, 2014, 19, 5(2), 100-105) using a wooden beam (20 mm diameter). Rats were made to traverse a one-meter-long wooden beam located approximately one meter above the ground, and the number of foot faults (slips) was recorded by two observers. The rats were trained for the test by being made to traverse the beam up to five times before measurements were recorded. […]

PCS rats = experiment: Radial maze test, PCS rats (Example 10); format: in vivo, rat
Procedure: (§1) Male Wistar rats (220-240 g) were anesthetized with isoflurane, and an end-to side porta-caval anastomosis was performed as described by Lee and Fisher (Surgery, 1961, 50, 668-672).
(§2) Rats that were subjected to the porta-caval anastomosis procedure are herein referred to as “PCS rats”.
(§3) 3α-ethynyl-3β-hydroxyandrostan-17-one oxime in sesame oil was administered by subcutaneous injections in the back of the rats, once daily. Two different sets of experiments were performed in hyperammonemic rats. In the first set four groups of rats were used: 1) control rats injected with vehicle; 2) hyperammonemic rats injected with vehicle; 3) control rats injected with 20 mg/Kg of 3α-ethynyl-3β-hydroxyandrostan-17-one oxime and 4) hyperammonemic rats injected with 20 mg/Kg of 3α-ethynyl-3β-hydroxyandrostan-17-one oxime.
For the experiments using PCS rats, the following groups of rats were used: 1) Sham rats injected with vehicle; 2) PCS rats injected with vehicle; 3-4) PCS rats injected with 0.7 or 2.5 mg/Kg of 3α-ethynyl-3β-hydroxyandrostan-17-one oxime. […]
The apparatus was composed of a central area that gave access to eight equally-sized arms. […] The number of working memory errors (visits to arms already visited in the same trial) were recorded and expressed as working errors.

[3] = Exposure in plasma and brain tissue, PCS rats (Example 13); format: in vivo, rat; conditions: for Total concentration in plasma: at the time for behavioral testing
Procedure: as §1, §2, §3
For the experiments using PCS rats, the following groups of rats were used: 1) Sham rats injected with vehicle; 2) PCS rats injected with vehicle; 3-4) PCS rats injected with 0.7 or 2.5 mg/Kg of 3α-ethynyl-3β-hydroxyandrostan-17-one oxime. The number of rats used in each experiment is either shown in the corresponding Figure or given in the description of the corresponding Figure.
At the end of the treatment period plasma was collected from the tail vein, and after sacrifice by decapitation brains were collected and immediately frozen on dry ice. For analysis of 3α-ethynyl-3β-hydroxyandrostan-17-one oxime exposure, brain tissue was homogenized with a 1:4 ratio of tissue: PBS (pH 7.4) and then extracted with a 2-fold volume of methanol:acetonitrile (1:1), while plasma was protein-precipitated with a 3-fold volume with acetonitrile. Analyses were performed by Waters ACQUITY UPLC+Waters XEVO-TQS triple quadrupole mass spectrometer (Admescope Oy, Oulu, Finland). For calculations of the amount of free 3α-ethynyl-3β-hydroxyandrostan-17-one oxime exposure in the brain the fraction unbound (Fb) in brain homogenates were determined by dialysis, Fub in HA=[…] and Fub in PCS=1.43% (Admescope Oy, Oulu, Finland).

## C#C[C@]1(O)CC[C@@]2(C)C(CC[C@@H]3[C@@H]2CC[C@]2(C)/C(=N\O)CC[C@@H]32)C1 (stereo partly drawn) [3α-ethynyl-3β-hydroxyandrostan-17-one oxime]
[1]; HA rats
  Unbound brain concentration: 106 ± 15.4 nmol/kg
[1]; control rats
  Unbound brain concentration: 91 ± 4.1 nmol/kg
[1]; treatment day five, 20 mg/kg s.c., control and hyperammonemic rats
  Total concentration in plasma, 23 hours vs 4 hours after injection: lower 23 hours after injection than 4 hours after injection
[2]
  Binding activity (greater than or equal to 50% inhibition of ligand binding): did not show binding activity
Hyperammonemic rats; 3 mg/kg s.c. once daily
  Number of slips, beam walking test: 0.8±0.1 slips
Hyperammonemic rats; 20 mg/kg s.c. once daily
  Number of slips, beam walking test: 0.78±0.07 slips
PCS rats; 0.7 mg/Kg
  Number of working errors in days 1-2, radial maze: 23±2 errors
PCS rats; 2.5 mg/Kg
  Number of working errors in days 1-2, radial maze: 11±1 errors
[3]; 0.7 mg/kg/day s.c.
  Unbound concentration in the brain: 6.18 ± 0.97 nmol/kg
  Total concentration in plasma: 0.48 ± 0.09 µM
[3]; 2.5 mg/kg/day s.c.
  Unbound concentration in the brain: 17 ± 2 nmol/kg
  Total concentration in plasma: 1.64 ± 0.30 µM
